# Laboratory results from PMC12770474 (Nature Communications, 2025).
# How the values were obtained:
# [1] = system: OCs; assay: Tunel staining of OCs apoptosis; assay type: cell-based, mice; details: BGD 64 μM or ALD 500 μM, 24 h, n = 3
# [2] = system: OVX mice; details: mouse, in vivo
# [3] = system: OCs formed by BMMs; assay: TRAP staining of RANKL-induced OCs formed by BMMs; assay type: cell-based, mice; details: TRAP staining day 6, n = 5
# [4] = target: T1, CTSK (Homo sapiens, UniProt P43235); assay: Zeta potential of the enzymolysis reaction mixture with and without CTSK; assay type: physicochemical; details: 64 μM peptide
# T1 sequence (P43235 115-329): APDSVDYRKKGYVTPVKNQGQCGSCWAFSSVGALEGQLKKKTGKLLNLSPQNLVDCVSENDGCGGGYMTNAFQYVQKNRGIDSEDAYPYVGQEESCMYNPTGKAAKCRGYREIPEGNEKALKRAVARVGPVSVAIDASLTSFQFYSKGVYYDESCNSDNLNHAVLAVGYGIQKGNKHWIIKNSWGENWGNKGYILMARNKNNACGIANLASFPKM
# [5] = Zeta potential of peptide assemblies; assay type: physicochemical; details: self-assembled peptide, 64 μM, Zetasizer, n = 3
# [6] = TEM morphology of peptide assemblies in PBS; details: 64 μM in PBS pH 7.4, 8 h incubation
# [7] = system: BMMs; assay: CCK-8 cytotoxicity assay, BMMs; assay type: cell-based, mice; details: CCK-8, 24 h, different concentrations, n = 3
# [8] = Dynamic light scattering; assay type: physicochemical; details: self-assembled nanoparticles, aqueous solution pH 7.4, 64 μM, Zetasizer
compound,measurement,setting,value
"NCCCC(O)(P(=O)(O)O)P(=O)(O)O [ALD, Alendronate]",cells undergoing apoptosis (Tunel staining),[1],a large number of OCs and pre-OCs underwent apoptosis
same,"micro-CT bone parameters (BMD, BV/TV, Tb.Th, Tb.N, Tb.Sp) vs OVX",[2],significantly improved
"CCCN1CCN(c2ccc(C(=O)NC3(C(=O)NCC#N)CCCCC3)cc2)CC1 [Balicatib, reference compound]","OCs formation, inhibitor alone",[3]; 20 nM on day 5 of RANKL induction,did not inhibit OCs formation
Bip-FFWKYK-GHPAAPQ-DDDDDD [BAD],"zeta potential of reaction mixture, presence of CTSK / after cleavage","[4]; MES buffer pH 5.5, with CTSK 800 ng/ml",−9.5 mV
same,"zeta potential of reaction mixture, absence of CTSK / before cleavage","[4]; MES buffer pH 5.5, without CTSK",−14.3 mV
same,Zeta potential,[5],−20.8 mV
same,morphology of assemblies (TEM),[6],"dispersed, nearly spherical nanoparticles"
same,number of TRAP-positive OCs vs RANKL control,[3]; peptide (64 μM) added on day 5 of RANKL induction,no significant effect
same,cytotoxicity toward BMMs,[7],consistent cytocompatibility
same,average size of nanoparticles (DLS),[8],36.6 nm
Bip-FFWKYK-GHPGGPQ-KKKKKK [BGK],Zeta potential,[5],+11.2 mV
same,cytotoxicity toward BMMs,[7],exhibited cytotoxicity at 32 μM
Bip-FFWKYK-GHPGGPQ-NNNNNN [BGN],Zeta potential,[5],−26.4 mV
same,cytotoxicity toward BMMs,[7],biocompatible
